Each block holds one compound with its values, some of them ahead of it.
Assays:
α-synuclein = α-synuclein levels by western blot in human midbrain iPS dopamine neurons; type: cell-based
Source text: In this Example, it was investigated whether enhancement of lysosomal enzyme trafficking through stimulation of the secretory pathway would result in increased lysosomal function and reduction of α-synuclein. Therefore, in this Example the small GTPase Rab1a polypeptide was overexpressed by lentiviral infection in iPS neurons to stimulate enzyme trafficking. Rab1a polypeptide has been established to function specifically at the ER-Golgi step of the secretory pathway (Duvernay et al., Cell Signal 17: 1457, 2005). The effect of Rab1a polypeptide was determined in human iPS dopamine neurons derived from reprogrammed fibroblasts of a PD patient (Coriell line ND27760). These cells harbor a triplication mutation in the genomic region containing SNCA which encodes for α-synuclein, leading to overexpression of the protein and lysosomal trafficking deficits. […] Further in this Example, it was determined if Rab1a polypeptide enhances lysosomal function by monitoring cathepsin B activity.
(§1) It was also shown in this Example that treatment with the GCase polypeptide activator increased the levels of total GCase protein and increased the post-ER forms, indicating enhancement of flux to the lysosome (FIG. 19B).
(§2) Most materials for SDS-PAGE were obtained from Invitrogen (NuPAGE system). Protein lysates were boiled in sample buffer (20 mM Tris, 1% (v/v) glycerol, 180 mM β-mercaptoethanol, 0.003% (w/v) bromophenol blue, 2% (w/v) SDS, pH 6.8), resolved on 4%-12% Bis-Tris polyacrylamide precast gels in a MOPS-SDS running buffer, or 4%-12% Tris-Glycine gels. 10% Tris-Glycine gels were utilized for some GCase polypeptide western blot's (FIGS. 13B, 13D, and 13E, and FIGS. 14C and 14F). […] Blots were blocked in Odyssey blocking buffer (Li-Cor biosciences) containing 0.05% Tween, or 5% non-fat dry milk in TBS-T 0.2%, followed by incubation with primary antibodies (see above for dilutions), and detected with anti-mouse or -rabbit IgG conjugated to IRDye 680 or 800 (1:10,000, Li-Cor biosciences). […] Any nonspecific bands detected were not included in densitometric analyses. […]

GCase polypeptide = molecular target: T1, GCase polypeptide (Homo sapiens, UniProt P04062); assay: GCase polypeptide levels and post-ER forms by western blot in human iPS dopamine neurons; type: cell-based; details: human midbrain iPS dopamine neurons
T1 construct: endogenous in cells; host or cells: human iPS-derived midbrain dopamine neurons (healthy control; PD patient with SNCA triplication, Coriell ND27760)
T1 sequence (P04062 40-536): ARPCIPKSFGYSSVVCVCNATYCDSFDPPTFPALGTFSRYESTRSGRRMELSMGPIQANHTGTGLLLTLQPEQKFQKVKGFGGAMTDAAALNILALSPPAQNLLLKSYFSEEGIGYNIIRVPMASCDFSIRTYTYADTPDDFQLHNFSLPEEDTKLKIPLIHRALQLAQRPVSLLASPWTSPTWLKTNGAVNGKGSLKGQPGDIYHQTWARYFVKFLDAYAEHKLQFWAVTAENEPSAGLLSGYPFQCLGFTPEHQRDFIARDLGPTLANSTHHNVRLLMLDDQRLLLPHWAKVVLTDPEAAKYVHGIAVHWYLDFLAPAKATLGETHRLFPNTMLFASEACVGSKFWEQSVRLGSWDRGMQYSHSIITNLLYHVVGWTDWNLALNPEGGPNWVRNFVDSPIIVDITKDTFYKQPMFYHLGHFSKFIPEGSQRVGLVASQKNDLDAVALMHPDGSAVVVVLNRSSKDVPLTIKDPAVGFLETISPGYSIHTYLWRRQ
Procedure: In this Example, human dopamine neurons generated from iPS cells of an unaffected control were treated with a pharmacological chaperone activator of GCase polypeptide, isofagomine (IFG). […] Treatment of wild-type neurons with 100 μM IFG for 5 days followed by 1 day wash-out increased the levels of GCase polypeptide (FIGS. 15A and 15B). This increase was likely due to the fact that wild-type GCase polypeptide was occasionally misfolded in the ER and degraded (about 30% of the total made in the ER), and IFG appeared to also stabilize the wild-type misfolded forms.
as §1
In this Example, the effect of combining the GCase polypeptide pharmacological chaperone IFG with the antioxidant n-acetyl-cysteine (NAC) on GCase polypeptide maturation in PD iPS neurons was tested. Neurons were treated with either IFG, NAC, or IFG and NAC together, and GCase polypeptide maturation was analyzed by western blot.
as §2

Hela cells = assay: Lysosomal proteolysis by radioactive pulse-chase in transfected Hela cells; type: cell-based
Procedure: Further in this Example, it was assessed whether GCase polypeptide overexpression had the ability to directly enhance lysosomal proteolysis in a non-neuronal cell line. Hela cells were transfected with a myc-tagged GCase polypeptide expression construct and lysosomal proteolysis was assessed by radioactive pulse-chase (FIG. 17A). […] This effect was also confirmed through a different assay, by measuring the effect of GCase polypeptide overexpression on the activity of the lysosomal protease cathepsin B. A cell-permeable fluorescent-tagged cathepsin B substrate (MAGIC RED cathepsin detection kit, Immunochemistry Technologies) was added to transfected Hela cells, and degradation of this substrate was determined in living cells after substrate wash-out.

primary cortical neurons = assay: Proteolysis of long-lived proteins by radioactive pulse-chase in primary cortical neurons; type: cell-based, mouse; details: added to GCase polypeptide KD
Procedure: In this Example, a test was conducted to determine whether GCase polypeptide KD affects a lysosomal degradation pathway. In this test, neurons were treated with the well-established lysosomal inhibitors ammonium chloride (NH4Cl) and leupeptin.
Proteolysis of long-lived proteins was determined by radioactive pulse-chase using ^3H-leucine. This procedure was performed as described previously (Kaushik et al. Methods Enzymol. 452: 297, 2009). Briefly, cortical cells were grown in 24 well clusters seeded at 33000 cells/well and infected at moi 3 with scrb or GCase polypeptide shRNA expressing lentiviral vectors. On dpi 4, ^3H-leucine (PerkinElmer, # NET460A001 MC, final 5 μCi/ml) was added in standard neurobasal medium containing B27 for 2 days to trace label proteins. […] Samples were centrifuged at 20,000×g for 20 min, 4° C., and the radioactivity was measured in 5 ml of scintillation cocktail using a Beckman LS 1701 liquid scintillation counter (Beckman Instruments). Precipitated protein pellets were extracted in 200 μl of Na deoxycholate, 0.1 M NaOH, and radioactivity was determined. Percent proteolysis was calculated as described in detail elsewhere (Kaushik et al. Methods Enzymol. 452: 297, 2009). […]

[1] = molecular target: T2, recombinant human α-synuclein (Homo sapiens, UniProt P37840); assay: In vitro soluble α-synuclein oligomers and sedimentation with lipids (SEC/SDS-PAGE, ANS, 100,000 x g centrifugation)
T2 construct: made in house; host or cells: E. coli BL21 CodonPlus (DE3)-RIL
Source text: Therefore, in this Example it was hypothesized that the delay in fibril formation observed in vitro resulted from a kinetic stabilization of a soluble oligomeric intermediate species. To test this, the nature of the species that form during the lag phase (between 1 and 16 hr) of PC25/GlcCer75-containing reactions were characterized by analytic biochemical methods. Soluble portions of the reaction mixtures were obtained by centrifugation at 100,000×g and analyzed at 1 and 5 hr after the addition of lipids by SEC/SDS-PAGE. […] Further, detected were increased amounts of soluble SDS and heat-stable dimers (36 kDa), trimers (54 kDa), and higher oligomeric species eluting as 36-27 Å-sized particles in PC25/GlcCer75-containing reactions compared to controls (FIG. 7B). […] Syn505 also detected α-synuclein directly on GlcCer tubular structures (FIG. 7G, i and ii) but not on GlcCer-alone reactions (FIG. 7I), indicating an association of misfolded α-synuclein with GlcCer. α-synuclein-GlcCer reactions were further analyzed by 8-anilino-1-napthalene sulfonate (ANS) binding, a fluorescent dye used to detect aggregation-prone conformational intermediates (Stryer, 1965). […]
Oligomers were also detected by 8-anilino-1-napthalene sulfonate (ANS) (Acros #401220050). […]

[2] = molecular target: T2, recombinant human α-synuclein; assay: In vitro α-synuclein fibril (amyloid) formation with lipid dispersions, thioflavin T fluorescence
Procedure: In this Example, lipid dispersions made of mixtures of purified GlcCer and brain phosphatidylcholines (PCs) were incubated with α-synuclein at physiological conditions (pH 7.4, 37° C.). Electron microscopy (EM) analysis indicated the formation of tubules consisting of polymerized GlcCer (FIGS. 7G-7I), similar to those previously observed in Gaucher cells in patients and mouse models (Lee, PNAS 61: 484, 1968).
However, increasing the amount of GlcCer to 75% while keeping the total lipid amount constant (PC25/GlcCer75) altered the kinetic profile of α-synuclein fibril formation by delaying the formation of insoluble thioT-positive α-synuclein fibrils, extending the lag time from 2 to 16 hr (FIG. 7A).
The fibril assembly phase PC25/GlcCer75-containing reactions occurred between 16 and 24 hr, compared to control reactions where the assembly occurred between 2 and 24 hr. […] The aggregated species formed at the end stage of the fibril-forming reaction, after assembly was completed and equilibrium was reached (at 28 hr) were further analyzed. […]
α-synuclein was expressed in E. coli and purified by boiling followed by HPLC as described previously (Mazzulli et al 2007). […] Fluorescence (ex=430 nm, em=510, 0.1 s) was determined in a Wallac Victor^2 plate reader (Perkin Elmer) in black FluorNunc Maxisorp 96 well plates (Nunc, #475515). […]

levels of total GCase protein (GCase polypeptide): increased | post-ER forms of GCase (GCase polypeptide): increased
Compound: C#Cc1ccc(NC(=O)c2cnn3c(C)cc(C)nc23)cc1 [NCGC00188758]
α-synuclein protein levels (α-synuclein; neurons from a PD patient with triplication of the SNCA genomic region): dose-dependent decrease | α-synuclein protein levels (α-synuclein; neurons from healthy unaffected controls): dose-dependent decrease

Compound: Cl.N [ammonium chloride]
effect of lysosomal inhibitors on the proteolysis increase by GCase polypeptide overexpression (Hela cells): completely reversed | proteolysis of long-lived proteins in GCase polypeptide shRNA-treated cells (primary cortical neurons): did not additively inhibit

amount of pelletable α-synuclein protein (100,000×g sedimentation) ([1]; pH 5.0, 28 hr): no effect | maximal thioT signal at the end stages, fold higher compared to control reactions ([2]; pH 5.0): 2- to 3 fold | α-synuclein fibril formation ([2]; physiological conditions, pH 7.4, 37° C.): no effect
Compound: Glucosyl (β) Ceramide [GlcCer]

soluble α-synuclein oligomers compared to α-synuclein alone ([1]; pH 5.0, 15 hr incubation, 10:1 lipid:protein ratio): dramatic stabilization and elevation
Compound: monosialotetrahexosylganglioside [ganglioside GM1]

Reference: patent US9845327B2, “Treatment of proteinopathies” (THE GENERAL HOSPITAL CORPORATION, priority 2011, dated 2017)
